In publication PMC10030565, “Ubiquitous occurrence of a dimethylsulfoniopropionate ABC transporter in abundant marine bacteria” (The ISME Journal, 2023):
pKd: −log10 of the molar value.

Columns and labels:
[1] = test system: RnDmpX Tyr200Phe mutant; experiment: ITC titration of DMSP into RnDmpX Tyr200Phe mutant; format: binding, Roseovarius nubinhibens ISM; details: Tyr200 mutated to Phe
Excerpt: (§1) The genes encoding SBPs from R. pomeroyi DSS-3 or R. nubinhibens ISM were amplified from the genome of R. pomeroyi DSS-3 or R. nubinhibens ISM by PCR using FastPfu DNA polymerase (TransGen Biotech, China). The dmpX homologue from P. sp. strain HTCC7211 (locus tag HTCC7211_00013840) was synthesized by the Beijing Genomics Institute (China). The related genes were then cloned into the NdeI/XhoI restriction sites of the pET-22b vector (Novagen, Germany) with a C-terminal His tag. Point mutations in DmpX were introduced using the PCR-based method and verified by DNA sequencing. The SBPs and corresponding mutant forms were produced in E. coli BL21 (DE3). The cells were cultured in the LB medium with 0.1 mg/ml ampicillin at 37 °C to an OD600 of 0.8–1.0 and then induced at 18 °C for 16 h with 0.5 mM isopropyl-β-D-thiogalactopyranoside (IPTG). After induction, cells were collected by centrifugation, resuspended in the lysis buffer (50 mM Tris-HCl, 100 mM NaCl, 0.5% glycerol, pH 8.0), and lysed by a pressure crusher. The proteins were first purified by affinity chromatography on a Ni^2+-NTA column (GE Healthcare, US), and then fractionated by gel filtration on a Superdex G75 column (GE healthcare, US).
(§2) Isothermal titration calorimetry (ITC) measurements were performed at 25 °C using a MicroCal iTC200 system (GE Healthcare, US) or MicroCal PEAQ-ITC system (Malvern Panalytical, UK). […]

[2] = test system: RnDmpX Tyr200Ala mutant; experiment: ITC titration of DMSP into RnDmpX Tyr200Ala mutant; format: binding, Roseovarius nubinhibens ISM; details: Tyr200 mutated to Ala
Excerpt: as §1, §2

[3] = test system: SBP encoded by SPO1131; experiment: ITC titration of DMSP into recombinant SBP encoded by SPO1131; format: binding, Ruegeria pomeroyi DSS-3
Excerpt: as §1, §2

[4] = target: RnDmpX (Roseovarius nubinhibens, UniProt A3SME7); experiment: ITC titration of DMSP into recombinant RnDmpX; format: binding, Roseovarius nubinhibens ISM
Chain of RnDmpX (A3SME7 entry or part of it): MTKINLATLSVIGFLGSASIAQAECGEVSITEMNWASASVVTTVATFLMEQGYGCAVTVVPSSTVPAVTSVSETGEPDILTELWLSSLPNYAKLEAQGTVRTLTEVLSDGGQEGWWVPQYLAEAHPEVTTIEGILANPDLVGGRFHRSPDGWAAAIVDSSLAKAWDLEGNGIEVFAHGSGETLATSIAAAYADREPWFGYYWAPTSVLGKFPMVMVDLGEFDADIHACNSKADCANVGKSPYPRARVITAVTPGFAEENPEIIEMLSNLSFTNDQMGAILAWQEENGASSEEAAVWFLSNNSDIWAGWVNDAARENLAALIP
Excerpt: as §1, §2

[5] = target: DmpX (SBP encoded by SPO2441) (Ruegeria pomeroyi, UniProt Q5LQP7); experiment: biochemical; format: binding, Ruegeria pomeroyi DSS-3; design: key to Dissociation constant (Kd): -: not detectable; details: ITC; for binding affinity (in words): DMSP analogues compared to DMSP; for Dissociation constant (Kd): dash = not detectable
Chain of DmpX (SBP encoded by SPO2441) (Q5LQP7 entry or part of it): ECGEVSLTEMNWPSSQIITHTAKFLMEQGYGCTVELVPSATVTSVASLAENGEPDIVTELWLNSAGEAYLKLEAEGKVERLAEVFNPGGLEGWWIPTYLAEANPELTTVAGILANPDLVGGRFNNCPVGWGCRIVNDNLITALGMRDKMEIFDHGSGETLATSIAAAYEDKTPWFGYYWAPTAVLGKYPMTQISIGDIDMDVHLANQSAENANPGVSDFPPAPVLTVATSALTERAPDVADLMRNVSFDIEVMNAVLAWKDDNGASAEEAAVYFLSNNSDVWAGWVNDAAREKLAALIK
Excerpt: as §1
(§3) Isothermal titration calorimetry (ITC) measurements were performed at 25 °C using a MicroCal iTC200 system (GE Healthcare, US) or MicroCal PEAQ-ITC system (Malvern Panalytical, UK). The sample cell was loaded with 280 μl of protein sample (30–100 μM), and the reference cell contained distilled water. The syringe was filled with 40 μl of substrates (100 μM–1 mM). The proteins and substrates were kept in the same buffer containing 10 mM Tris-HCl (pH 8.0) and 100 mM NaCl.

[6] = test system: TmoX (encoded by SPO1548); design: method as in PMID 24550299, PMID 26283766; details: cited from earlier work
[7] = test system: SBP encoded by SPOA0231; experiment: ITC titration of DMSP into recombinant SBP encoded by SPOA0231; format: binding, Ruegeria pomeroyi DSS-3
Excerpt: as §1, §2

[8] = target: DmpX^7211 (Candidatus Pelagibacter sp. HTCC7211, UniProt B6BQI1); experiment: ITC titration of substrates into recombinant DmpX^7211; format: binding; design: key: -: not detectable; details: dash = not detectable
Chain of DmpX^7211 (B6BQI1 27-337 limits assumed): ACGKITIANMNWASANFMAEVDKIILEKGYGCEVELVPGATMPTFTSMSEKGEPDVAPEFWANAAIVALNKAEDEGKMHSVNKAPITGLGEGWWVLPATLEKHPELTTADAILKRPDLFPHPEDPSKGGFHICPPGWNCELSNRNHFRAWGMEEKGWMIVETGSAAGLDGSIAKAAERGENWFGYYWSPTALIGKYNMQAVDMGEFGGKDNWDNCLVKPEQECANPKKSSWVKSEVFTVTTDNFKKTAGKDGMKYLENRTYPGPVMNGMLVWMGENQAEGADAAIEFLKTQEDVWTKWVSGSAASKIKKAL
Excerpt: as §1, §3

[9] = test system: R. pomeroyi DSS-3 WT; experiment: Uptake of 14C-labeled DMSP, wild-type; format: cell-based, Ruegeria pomeroyi DSS-3; details: 5 min, 30 °C, mean ± S.D. n = 3
Description: (§4) Triplicates of 1 µl ^14C:^12C-DMSP in 3 ml scintillation fluid (EcoLume Liquid Scintillation Cocktail, MP Biomedical, US) were measured on a liquid scintillation analyzer (Tri-Carb 2800TR, Perkin Elmer, UK) after overnight equilibration.
(§5) A single colony of R. pomeroyi DSS-3 WT, ΔdmpXWV mutant, or complemented ΔdmpXWV mutant was inoculated into 5 ml of marine broth medium (MB) and grown overnight at 30 °C under constant shaking (170 rpm). 1 ml preculture was inoculated into 50 ml MB and grown at 30 °C with shaking (130 rpm) until an OD540 of ~0.5-0.7 was reached, then used for DMSP uptake assays.
(§6) Due to a relatively low radiochemical and mid-millimolar range molar concentration of the ^14C:^12C-DMSP stock, we could not conduct uptake kinetics experiments. Instead, we used three DMSP concentrations (50, 150, and 300 µM) and added them to 3 ml of cultures in biological triplicates. Cells were incubated at 30 °C with shaking (130 rpm) for 5 min, filtered onto 0.2 µm pore size Supor filters (∅ 25 mm, Pall Corporation, US), and washed 3x with 1 ml MB medium. Wet filters were transferred to 6 ml scintillation vials and 3 ml EcoLume Liquid Scintillation Cocktail added. After equilibration overnight, samples were measured on a Tri-Carb 2800TR liquid scintillation analyzer. Cells fixed in 2% (vol/vol) freshly prepared paraformaldehyde solution for >15 min at 4 °C in the dark prior to radioisotope addition were used for background correction. Uptake rates were normalized by cell number.
(§7) Bacterial cell numbers used for normalization of uptake rates were determined by flow cytometry. […] 75 to 200-fold sample dilutions in sterile TE buffer (10 mM Tris-HCl, 1 mM EDTA, pH 8.0) were counted in analytical triplicates on a CytoFLEX flow cytometer (Beckman Coulter, UK) at a flow rate of 30 µl min^-1 for 60 sec. The instrument was equipped with a 50 mW 488 nm solid-state diode laser with standard filters and the discriminator set to 525 nm (green fluorescence) (Fig. S1).

[10] = test system: R. pomeroyi DSS-3 ΔdmpXWV::Gm mutant; experiment: Uptake of 14C-labeled DMSP, ΔdmpXWV::Gm mutant; format: cell-based, Ruegeria pomeroyi DSS-3; details: for Uptake rate: ΔdmpXWV::Gm, 5 min, 30 °C, mean ± S.D. n = 3
Description: Bacterial cell numbers used for normalization of uptake rates were determined by flow cytometry [41]. 1 ml culture was fixed with a final concentration of 0.5% (vol/vol) glutaraldehyde (Electron microscopy grade, BDH, AE) for 30 min at 4 °C, snap frozen in liquid nitrogen, and stored at –80 °C. Samples were thawed at 37 °C for 5 min, stained with SYBR gold (Invitrogen, US) (final concentration 10^-4 of commercial stock) for 10 min at 60 °C in the dark. 75 to 200-fold sample dilutions in sterile TE buffer (10 mM Tris-HCl, 1 mM EDTA, pH 8.0) were counted in analytical triplicates on a CytoFLEX flow cytometer (Beckman Coulter, UK) at a flow rate of 30 µl min^-1 for 60 sec. The instrument was equipped with a 50 mW 488 nm solid-state diode laser with standard filters and the discriminator set to 525 nm (green fluorescence) (Fig. S1).

[11] = test system: R. pomeroyi DSS-3 complemented mutant ΔdmpXWV::Gm; experiment: Uptake of 14C-labeled DMSP, complemented ΔdmpXWV::Gm mutant; format: cell-based, Ruegeria pomeroyi DSS-3; details: for Uptake rate: complemented mutant ΔdmpXWV::Gm, 5 min, 30 °C, mean ± S.D. n = 3
Excerpt: To create the ΔdmpXWV knockout mutant regions of homology at the 5′ and 3′ ends of dmpXWV were amplified, alongside the gentamicin cassette from the p34s-Gm plasmid. Amplified DNA fragments were assembled into linearised pk18mobsacB using the HiFi assembly kit (New England Biolabs) according to the manufacturer’s instructions. To construct the complementation plasmid, dmpXWV was cloned into linearised pBBR1McS-km using the HiFi assembly kit. Plasmids were electroporated into competent Escherichia coli S17.1 λpir and conjugated into R. pomeroyi DSS-3. The knockout mutant was selected onto minimal media plates containing gentamicin (10 µg/ml), with resultant colonies screened for kanamycin resistance. Kanamycin-sensitive clones were PCR screened and products sequenced to confirm a double crossover. The complemented mutant strain was selected on MB plates containing gentamicin (10 µg/ml) and kanamycin (80 µg/ml), and colonies confirmed by PCR screening and sequencing.
as §4, §5
as §6, with “Cells fixed in 2% (vol/vol) freshly prepared paraformaldehyde solution for >15 min at 4 °C in the dark prior to radioisotope addition were used for background correction. Uptake rates were normalized by cell number.” left out
as §7

## C[S+](C)CCC(=O)[O-] [DMSP, Dimethylsulfoniopropionate]
[1]
  binding affinity for DMSP (in words): abolished
[2]
  binding affinity for DMSP (in words): abolished
[3]
  high binding affinity for DMSP (in words): did not
[4]
  pKd: 6.32
[5]; 25 °C, 10 mM Tris-HCl pH 8.0, 100 mM NaCl, SPO2441 (DmpX), read-out: Dissociation constant (Kd)
  pKd: 5.96
[6]
  binding affinity to DMSP (in words): does not show any binding affinity
[7]
  high binding affinity for DMSP (in words): did not

## C[N+](C)(C)CC(=O)O [GBT, glycine betaine]
[8]
  Dissociation constant (Kd): -
[5]
  binding affinity (in words): little binding affinity
[5]; SPO2441 (DmpX)
  Dissociation constant (Kd): -

## C[N+](C)(C)[O-] [TMAO, trimethylamine N-oxide]
[8]
  Dissociation constant (Kd): -
[5]
  binding affinity (in words): little binding affinity
[5]; SPO2441 (DmpX)
  Dissociation constant (Kd): -

## C[S+](C)CCC(=O)[O-] [^14C-DMSP, [1-^14C]DMSP]
[9]; DMSP concentration 50 µM
  Uptake rate: 1.852 ± 0.100 fmol cell^-1 min^-1
[9]; DMSP concentration 150 µM
  Uptake rate: 2.267 ± 0.189 fmol cell^-1 min^-1
[9]; DMSP concentration 300 µM
  Uptake rate: 3.095 ± 0.081 fmol cell^-1 min^-1
[10]; 50 μM DMSP, p < 0.001
  reduction of uptake in the mutant in comparison to the wild-type: ~ 5 times
[10]; 300 μM DMSP, p < 0.001
  decrease of uptake in the mutant in comparison to the wild-type: ~ 3 times
[10]; DMSP concentration 50 µM
  Uptake rate: 0.522 ± 0.040 fmol cell^-1 min^-1
[10]; DMSP concentration 300 µM
  Uptake rate: 1.344 ± 0.150 fmol cell^-1 min^-1
[11]; complemented mutant versus ΔdmpXWV::Gm
  restoration of import by complementation with dmpXWV (in words): partly restore
[11]; DMSP concentration 50 µM
  Uptake rate: 0.946 ± 0.299 fmol cell^-1 min^-1
[11]; DMSP concentration 150 µM
  Uptake rate: 1.221 ± 0.159 fmol cell^-1 min^-1
[11]; DMSP concentration 300 µM
  Uptake rate: 1.893 ± 0.084 fmol cell^-1 min^-1

## C[N+](C)(C)CC(O)CC(=O)[O-] (centres unmarked) [carnitine]
[8]
  Dissociation constant (Kd): -
[5]
  binding affinity (in words): little binding affinity
[5]; SPO2441 (DmpX)
  Dissociation constant (Kd): -

## C[N+](C)(C)CCO [choline]
[5]
  binding affinity (in words): little binding affinity
[5]; SPO2441 (DmpX)
  Dissociation constant (Kd): -
